Measurements as given in patent US11787839B2, “Targeting α2δ-1-bound glutamate receptors for treating diseases and disorders” (Board of Regents, The University of Texas System, priority 2017, dated 2023).

Columns and labels:
calpain = assay: MCAO: spectrin BD level (calpain activation) in brain tissues; format: in vivo, mouse; details: MCAO WT mice; gabapentin posttreatment; peptide 200 μg/kg i.p. twice
Excerpt: α2δ-1 and α2δ-1-bound NMDARs contribute to MCAO-induced calpain activation in brain tissues: Cerebral ischemia increases calpain activity, and calpain inhibition is neuroprotective against ischemia-induced brain injury. Spectrin is highly sensitive to proteolysis by calpain, and the stable αIIspectrin breakdown product (spectrin BD, 150 kDa) is commonly used as a biochemical assay for calpain activation.

MCAO mice = assay: MCAO ischemic stroke model: neurological deficit and infarct volume; format: in vivo, mouse; details: 90 min MCAO, 24 h reperfusion; gabapentin 100 mg/kg i.p. pre- or posttreatment; peptide 200 μg/kg i.p. twice
Method: Gabapentin was administered intraperitoneally (i.p.) either before or after initiating MCAO in separate groups of mice (pretreatment and posttreatment groups). […] Saline at the same volume as the gabapentin was administered i.p. in a vehicle group that also received MCAO.
It was then determined whether the α2δ-1-NMDAR interaction is involved in brain injury and neurological deficits caused by MCAO. In this protocol, MCAO-subjected mice with two injections of α2δ-1Tat peptide or control peptide (both 200 μg/kg, i.p.): one at 15 min before MCAO and another immediately before reperfusion. […] Furthermore, the brain infarct volume was much less in mice treated with α2δ-1Tat peptide than in mice treated with the control peptide (FIG. 22D).
Animal model. All procedures and protocols were approved by the Institutional Animal Care and Use Committee of The University of Texas MD Anderson Cancer Center. Adult male wild-type (WT) and conventional Cacna2d1 knockout (KO) mice (25-30 g, 8-10 weeks of age) were used in the study. MCAO was used in mice as an ischemic stroke model. The neurological deficits of mice subjected to MCAO were evaluated using a modified Longa test on a scale of 0-5. The brain coronal sections were stained using 1% 2,3,5-triphenyltetrazolium chloride (TTC), and the stained sections were captured as digital images and quantified for infarct volume.

cleaved caspase-3 = assay: MCAO: cleaved caspase-3 protein levels in brain tissues; format: in vivo, mouse; details: MCAO mice; cortex, hippocampus, striatum
Excerpt: (C and D) Original gel images (C, two pairs of samples) and quantification (D) of cleaved caspase-3 protein levels in the cerebral cortex, hippocampus, and striatum from MCAO mice treated with α2δ-1Tat peptide or control peptide (n=8 mice per group). Data are shown as means±SEM. *p<0.05 compared with the sham group. #p<0.05 compared with MCAO+vehicle group or control peptide group in the same brain region (repeated measures ANOVA for panel B; paired Student's t-test for panel D).

morphine-treated rats = assay: Opioid-induced hyperalgesia and analgesic tolerance in rats; details: co-treatment: gabapentin 100 mg/kg i.p. or peptide 1 μg intrathecal
[1] = target: T1, NMDARs of spinally projecting PVN neurons (Rattus norvegicus, UniProt P35439+Q00959+Q00960); assay: Recordings of spinally projecting PVN neurons in rat brain slices (Ang II); format: cell-based
T1 construct: from tissue; host or cells: rat hypothalamic slices containing the PVN (Sprague-Dawley, WKY, SHR) and synaptosomes made from them
Excerpt: Retrograde labeling of spinally projecting PVN neurons: Rats or mice were anesthetized with 2-3% isoflurane, and their spinal cords at the T1-T4 level were exposed through dorsal laminectomy. A fluorescent microsphere suspension (FluoSpheres, 0.04 μm; Molecular Probes, Invitrogen, Eugene, Oreg.) was pressure ejected (Nanoject II Microinjectors, Drummond Scientific Company, Broomall, Pa.) bilaterally into the IML region of the spinal cord in six separate 50-nl injections using a glass micropipette (tip diameter, 20-30 μm). […] The wound was closed with sutures after injection. Animals were returned to their cages for 4-7 days, which was sufficient time to permit the tracer to be retrogradely transported to the PVN. The animals were inspected daily for motor activity, signs of infection, and food and water intake.
Brain slice preparation: Four to seven days after fluorescent tracer injection, the animals were anesthetized with isoflurane and rapidly decapitated. […] Coronal slices (thickness, 300 μm) containing the PVN were cut from the tissue block in the ice-cold aCSF. […] The brain slices were placed in a glass-bottom chamber and continuously perfused with aCSF at 3.0 ml/min at 34° C. maintained by an inline solution heater and temperature controller.
The labeled PVN neurons were briefly identified with the aid of epifluorescence illumination, and whole-cell recordings from labeled PVN neurons were performed under differential interference contrast optics on an upright microscope (BX50 WI; Olympus Optical, Tokyo, Japan). Recordings of postsynaptic currents began 5 min after the whole-cell access was established and the current reached a steady state.
Signals were processed with an […] amplifier (Axon Instruments, Foster City, Calif.). A liquid junction potential of 15 mV (for the potassium gluconate pipette solution) was corrected during off-line analysis.
Postsynaptic NMDAR currents were elicited by puff application of 100 μmol/L NMDA to the recorded neuron using a positive pressure system (4 p.s.i., 50 ms; Toohey Company, Fairfield, N.J.). The tip of the puff pipette was placed 150 μm from the recorded neuron. […] The NMDAR current data presented in the manuscript were the average of 3 consecutive currents elicited by repeated puff NMDA. The neuron was discarded if the current was not stable.
Ang II, losartan, and NMDA were obtained from Sigma (St. Louis, Mo.). The α2δ-1Tat peptide and scrambled control peptide were synthesized by Bio Basic Inc. (Markham, Ontario, Canada) and validated by liquid chromatography and mass spectrometry. […] All drugs were prepared immediately before the experiments and applied to the slice chamber. The brain slices were first pretreated with Ang II, losartan, α2δ-1Tat peptide, or control peptide in the slice incubation chamber before recording. For electrophysiological recording, the treatment agents were immediately removed and the brain slice transferred to a separate recording chamber.

T1 sequence (Q00959 20-1464 limits assumed, other chains not shown): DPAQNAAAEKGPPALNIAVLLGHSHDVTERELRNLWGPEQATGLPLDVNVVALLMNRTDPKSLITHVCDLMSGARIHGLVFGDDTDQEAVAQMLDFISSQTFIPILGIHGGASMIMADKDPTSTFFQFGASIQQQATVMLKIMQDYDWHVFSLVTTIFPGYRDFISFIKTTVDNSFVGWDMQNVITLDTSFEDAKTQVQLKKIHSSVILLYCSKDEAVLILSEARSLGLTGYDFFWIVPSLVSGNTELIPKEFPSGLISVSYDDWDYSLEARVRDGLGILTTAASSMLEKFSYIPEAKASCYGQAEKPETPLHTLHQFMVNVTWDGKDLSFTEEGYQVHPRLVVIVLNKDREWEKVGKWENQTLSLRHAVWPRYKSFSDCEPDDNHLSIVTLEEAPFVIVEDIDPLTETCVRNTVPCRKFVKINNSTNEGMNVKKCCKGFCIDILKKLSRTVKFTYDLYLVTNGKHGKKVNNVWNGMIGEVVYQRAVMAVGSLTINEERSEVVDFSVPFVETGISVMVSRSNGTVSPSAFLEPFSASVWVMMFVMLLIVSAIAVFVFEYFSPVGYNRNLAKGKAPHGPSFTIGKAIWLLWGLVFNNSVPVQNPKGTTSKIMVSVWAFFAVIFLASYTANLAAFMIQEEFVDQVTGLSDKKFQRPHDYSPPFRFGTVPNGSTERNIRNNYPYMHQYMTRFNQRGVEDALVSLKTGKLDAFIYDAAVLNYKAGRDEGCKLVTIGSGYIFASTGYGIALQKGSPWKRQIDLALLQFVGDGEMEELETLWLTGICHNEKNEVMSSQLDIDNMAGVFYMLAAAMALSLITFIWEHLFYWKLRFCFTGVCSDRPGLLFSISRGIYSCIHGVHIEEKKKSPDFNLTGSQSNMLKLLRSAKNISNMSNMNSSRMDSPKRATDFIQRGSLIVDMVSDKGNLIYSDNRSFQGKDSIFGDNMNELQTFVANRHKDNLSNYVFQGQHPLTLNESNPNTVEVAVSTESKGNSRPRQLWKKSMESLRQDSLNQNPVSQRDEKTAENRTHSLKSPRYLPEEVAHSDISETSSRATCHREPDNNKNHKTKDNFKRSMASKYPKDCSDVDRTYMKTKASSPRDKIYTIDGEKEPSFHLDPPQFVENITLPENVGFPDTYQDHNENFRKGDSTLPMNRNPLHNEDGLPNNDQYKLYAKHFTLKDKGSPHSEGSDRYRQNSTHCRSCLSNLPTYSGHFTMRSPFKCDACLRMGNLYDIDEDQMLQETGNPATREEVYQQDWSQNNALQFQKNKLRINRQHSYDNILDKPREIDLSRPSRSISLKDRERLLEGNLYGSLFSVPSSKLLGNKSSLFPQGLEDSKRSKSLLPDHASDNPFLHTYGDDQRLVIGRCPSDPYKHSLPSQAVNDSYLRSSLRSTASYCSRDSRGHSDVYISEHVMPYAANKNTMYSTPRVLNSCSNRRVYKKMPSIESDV
T1 sequence (Q00960 27-1482, other chains not shown): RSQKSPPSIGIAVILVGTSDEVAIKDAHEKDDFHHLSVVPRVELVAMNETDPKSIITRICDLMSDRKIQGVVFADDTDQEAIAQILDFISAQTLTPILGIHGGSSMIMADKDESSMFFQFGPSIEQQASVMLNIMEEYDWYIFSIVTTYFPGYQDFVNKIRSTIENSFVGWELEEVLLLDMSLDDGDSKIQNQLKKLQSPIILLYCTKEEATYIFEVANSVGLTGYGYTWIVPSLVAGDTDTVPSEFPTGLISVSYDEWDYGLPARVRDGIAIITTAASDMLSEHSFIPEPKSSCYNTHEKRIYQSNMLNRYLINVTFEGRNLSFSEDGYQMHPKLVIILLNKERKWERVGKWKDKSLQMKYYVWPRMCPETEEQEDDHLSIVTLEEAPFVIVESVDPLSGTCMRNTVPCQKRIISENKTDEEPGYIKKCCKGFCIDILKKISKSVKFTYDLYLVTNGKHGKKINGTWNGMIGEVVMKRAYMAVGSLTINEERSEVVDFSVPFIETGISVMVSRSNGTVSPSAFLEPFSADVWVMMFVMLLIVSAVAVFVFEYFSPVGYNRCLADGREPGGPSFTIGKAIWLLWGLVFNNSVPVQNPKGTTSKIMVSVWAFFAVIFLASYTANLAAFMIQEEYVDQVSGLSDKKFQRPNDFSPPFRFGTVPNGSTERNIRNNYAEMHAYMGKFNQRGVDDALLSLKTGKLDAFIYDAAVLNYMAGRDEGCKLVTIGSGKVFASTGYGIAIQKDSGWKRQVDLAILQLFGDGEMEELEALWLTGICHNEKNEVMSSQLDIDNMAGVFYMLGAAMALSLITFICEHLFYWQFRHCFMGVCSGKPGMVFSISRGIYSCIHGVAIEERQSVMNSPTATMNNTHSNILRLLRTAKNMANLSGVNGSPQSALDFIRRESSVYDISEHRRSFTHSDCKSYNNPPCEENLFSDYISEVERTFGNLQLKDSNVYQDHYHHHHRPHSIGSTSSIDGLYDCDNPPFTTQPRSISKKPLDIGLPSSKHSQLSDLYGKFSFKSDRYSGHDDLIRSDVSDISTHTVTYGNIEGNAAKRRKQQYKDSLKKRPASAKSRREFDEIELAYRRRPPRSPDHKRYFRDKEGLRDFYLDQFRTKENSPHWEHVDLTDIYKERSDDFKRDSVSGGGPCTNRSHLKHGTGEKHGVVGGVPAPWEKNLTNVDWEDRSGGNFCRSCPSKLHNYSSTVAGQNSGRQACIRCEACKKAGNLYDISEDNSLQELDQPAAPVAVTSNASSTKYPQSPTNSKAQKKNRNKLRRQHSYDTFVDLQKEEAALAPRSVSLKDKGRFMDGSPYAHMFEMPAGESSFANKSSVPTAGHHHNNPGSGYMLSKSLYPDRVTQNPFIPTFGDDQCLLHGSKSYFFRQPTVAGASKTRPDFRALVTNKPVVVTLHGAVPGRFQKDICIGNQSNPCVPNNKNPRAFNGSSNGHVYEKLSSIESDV

Row | Molecule | spectrin BD level in cortex, hippocampus and striatum (calpain) | brain infarct volume (MCAO mice) | neurological deficit score (MCAO mice) | MCAO-induced apoptotic signaling (cleaved caspase-3) (cleaved caspase-3) | reduction in baseline withdrawal thresholds induced by chronic morphine injections (morphine-treated rats) | reduction in the analgesic effect of morphine (morphine-treated rats) | amplitude of puff NMDA currents of labeled PVN neurons ([1]; Ang II 2 μmol/L for 30-60 min) | baseline frequency of mEPSCs of labeled PVN neurons ([1]; Ang II 2 μmol/L for 30-60 min) | effect of Ang II on mEPSC frequency in pretreated slices ([1]; losartan 2 μmol/L, pregabalin 20 μmol/L, peptides 1 μmol/L) | effect of Ang II on puff NMDA currents in pretreated slices ([1]; losartan 2 μmol/L, pregabalin 20 μmol/L, peptides 1 μmol/L, 30 min)
1 | NCC1(CC(=O)O)CCCCC1 [gabapentin] | significantly reduced | much smaller | significantly improved | suppresses | completely blocked | substantially attenuated |  |  |  | 
2 | Ang II: angiotensin II, obtained from Sigma (DRVYIHPF; Angiotensin-2; UniProt P01019 25-32, looked up) |  |  |  |  |  |  | markedly increased | significantly increased |  | 
3 | YGRKKRRQRRRVSGLNPSLWSIFGLQFILLWLVSGSRHYLW (a2d1 peptide) [α2δ-1Tat peptide] | significantly reduced | much less | significantly reduced | suppresses | completely blocked | substantially attenuated |  |  | failed to increase | had no effect
